SMILES strings stand for the structures.

This experiment deals with VEGF-stimulated HUVEC proliferation (Human Umbilical Vein Endothelial cells). In words: HUVEC Proliferation Assay. In kind it is cell-based. The conditions noted are these: VEGF 50 ng/mL final, 72 h incubation, CyQuant fluorescent dye, read-out: inhibited VEGF-stimulated HUVEC proliferation at a level (IC50). As to the method: Human Umbilical Vein Endothelial cells are purchased from Clonetics, Inc., as cryopreserved cells harvested from a pool of donors. These cells, at passage 1, are thawed and expanded in EBM-2 complete medium, until passage 2 or 3. The cells are trypsinized, washed in DMEM+10% FBS+antibiotics, and spun at 1000 rpm for 10 min. Prior to centrifugation of the cells, a small amount is collected for a cell count. After centrifugation, the medium is discarded, and the cells are resuspended in the appropriate volume of DMEM+10% FBS+antibiotics to achieve a concentration of 3×10^5 cells/mL. Another cell count is performed to confirm the cell concentration. The cells are diluted to 3×10^4 cells/mL in DMEM+10% FBS+antibiotics, and 100 μL of cells are added to a 96-well plate. The cells are incubated at 37° C. for 22 h.
Prior to the completion of the incubation period, compound dilutions are prepared. Five-point, five-fold serial dilutions are prepared in DMSO, at concentrations 400-fold greater than the final concentrations desired. 2.5 μL of each compound dilution are diluted further in a total of 1 mL DMEM+10% FBS+antibiotics (400× dilution). Medium containing 0.25% DMSO is also prepared for the 0 μM compound sample. At the 22-hour timepoint, the medium is removed from the cells, and 100 μL of each compound dilution is added. The cells are incubated at 37° C. for 2-3 h.
During the compound pre-incubation period, the growth factors are diluted to the appropriate concentrations. Solutions of DMEM+10% FBS+antibiotics, containing either VEGF or bFGF at the following concentrations: 50, 10, 2, 0.4, 0.08, and 0 ng/mL are prepared. For the compound-treated cells, solutions of VEGF at 550 ng/mL or bFGF at 220 ng/mL for 50 ng/mL or 20 ng/mL final concentrations, respectively, are prepared since 10 μL of each will be added to the cells (110 μL final volume). At the appropriate time after adding the compounds, the growth factors are added. VEGF is added to one set of plates, while bFGF is added to another set of plates. For the growth factor control curves, the media on wells B4-G6 of plates 1 and 2 are replaced with media containing VEGF or bFGF at the varying concentrations (50-0 ng/mL). The cells are incubated at 37° C. for an additional 72 h.
At the completion of the 72 h incubation period, the medium is removed, and the cells are washed twice with PBS. After the second wash with PBS, the plates are tapped gently to remove excess PBS, and the cells are placed at −70° C. for at least 30 min. The cells are thawed and analyzed using the CyQuant fluorescent dye (Molecular Probes C-7026), following the manufacturer's recommendations. The plates are read on a Victor/Wallac 1420 workstation at 485 nm/530 nm (excitation/emission). Raw data are collected and analyzed using a 4-parameter fit equation in XLFit. IC50 values are then determined.
Take `CC1(C)CN(C(=O)CN)c2cc(NC(=O)c3cccnc3NCc3ccc(F)cc3)ccc21` [Example 59, N-[1-(2-Amino-acetyl)-3,3-dimethyl-2,3-dihydro-1H-indol-6-yl]-2-(4-fluoro-benzylamino)-nicotinamide]: the IC50 is < 50 nM.
Turning to `O=C(Nc1cc(OCC2CCNCC2)cc(C(F)(F)F)c1)c1cccnc1NCc1ccc(F)cc1` [Example 61, 2-(4-Fluoro-benzylamino)-N-[3-(piperidin-4-ylmethoxy)-5-trifluoromethyl-phenyl]-nicotinamide], the IC50 was < 50 nM.
As for `O=C(Nc1ccc(C(F)(F)F)cc1)c1cccnc1NCc1ccc(F)cc1` [Example 34, (2-{[(4-Fluorophenyl)methyl]amino}(3-pyridyl))-N-(4-(trifluoromethyl)phenyl]carboxamide], the IC50 is < 50 nM.
As for `CC1(C)CNc2cc(NC(=O)c3cccnc3NCc3ccc(F)cc3)ccc2O1` [Example 62, N-(2,2-Dimethyl-3,4-dihydro-2H-benzo[1,4]oxazin-6-yl)-2-(4-fluoro-benzylamino)-nicotinamide], the IC50 was < 50 nM.
Turning to `CC(C)(C)c1ccc(NC(=O)c2cccnc2NCc2ccc(F)cc2)cc1OCC1CCNCC1` [Example 56, N-[4-tert-Butyl-3-(piperidin-4-ylmethoxy)-phenyl]-2-(4-fluoro-benzylamino)-nicotinamide], the IC50 is < 50 nM.
Turning to `O=C(Nc1ccc(Oc2ccccc2)cc1)c1cccnc1NCc1ccc2c(c1)OCO2` [Example 41, {2-[(2H-Benzo[d]1,3-dioxol-5-ylmethyl)amino](3-pyridyl)}-N-(4-phenoxyphenyl)carboxamide], the IC50 is < 50 nM.
On to `CN1CCC[C@H]1COc1cc(NC(=O)c2cccnc2NCc2ccc(F)cc2)cc(C(F)(F)F)c1` [Example 63, (S)-2-(4-Fluoro-benzylamino)-N-[3-(1-methyl-pyrrolidin-2-ylmethoxy)-5-trifluoromethyl-phenyl]-nicotinamide], for which the IC50 is < 50 nM.
Consider `CN(C)CC(=O)N1CC(C)(C)c2ccc(NC(=O)c3cccnc3NCc3ccc(F)cc3)cc21` [Example 46, N-[1-(2-Dimethylamino-acetyl)-3,3-dimethyl-2,3-dihydro-1H-indol-6-yl]-2-(4-fluoro-benzylamino)-nicotinamide], for which the IC50 is < 50 nM.
As to `CC(=O)N1CC(C)(C)Oc2ccc(NC(=O)c3cccnc3NCc3ccc(F)cc3)cc21` [Example 52, N-(4-Acetyl-2,2-dimethyl-3,4-dihydro-2H-benzo[1,4]oxazin-6-yl)-2-(4-fluoro-benzylamino)-nicotinamide], the IC50 was < 50 nM.
For the molecule `O=C(Nc1cccc(C(F)(F)F)c1)c1cccnc1NCc1ccc(F)c(C#CCN2CCOCC2)c1` [Example 40, [2-({[4-Fluoro-3-(3-morpholin-4-ylprop-1-ynyl)phenyl]methyl}amino)(3-pyridyl)]-N-[3-(trifluoromethyl)phenyl]carboxamide], the IC50 was < 50 nM.
As for `CN1CCC(C(C)(C)c2ccc(NC(=O)c3cccnc3NCc3ccc(F)cc3)cc2)CC1` [Example 65, 2-(4-Fluoro-benzylamino)-N-{4-[1-methyl-1-(1-methyl-piperidin-4-yl)-ethyl]-phenyl}-nicotinamide], the IC50 is < 50 nM.
Take `CN(C)CCCc1cc(NC(=O)c2cccnc2NCc2ccc(F)cc2)cc(C(F)(F)F)c1` [Example 35, N-{3-[3-(Dimethylamino)propyl]-5-(trifluoromethyl)phenyl}(2-{[(4-fluorophenyl)methyl]amino}(3-pyridyl))carboxamide]: the IC50 is < 50 nM.
With `CC1(C)CNCc2cc(NC(=O)c3cccnc3NCc3ccc(F)cc3)ccc21` [Example 58, N-(4,4-Dimethyl-1,2,3,4-tetrahydro-isoquinolin-7-yl)-2-(4-fluoro-benzylamino)-nicotinamide], the IC50 was < 50 nM.
Consider `CN1CC=C(c2cc(NC(=O)c3cccnc3NCc3ccc(F)cc3)ccc2C(C)(C)C)CC1` [Example 39], for which the IC50 is < 50 nM.
On to `O=C(Nc1ccc(C(F)(F)C(F)(F)F)c(OC[C@H]2CCCN2)c1)c1cccnc1NCc1ccc(F)cc1` [Example 54, (R) 2-(4-Fluoro-benzylamino)-N-[3-(pyrrolidin-2-ylmethoxy)-4-pentafluoroethyl-phenyl]-nicotinamide], for which the IC50 was < 50 nM.
Take `CCC(C)c1ccc(NC(=O)c2cccnc2NCc2ccc(F)cc2)cc1` (centres unmarked) [Example 16, N-(4-sec-butylphenyl)-2-[(4-fluorobenzyl)amino]nicotinamide]: the IC50 was < 50 nM.
On to `CN1CCC(CN2CC(C)(C)c3ccc(NC(=O)c4cccnc4NCc4ccc(F)cc4)cc32)CC1` [Example 64, N-[3,3-Dimethyl-1-(1-methyl-piperidin-4-ylmethyl)-2,3-dihydro-1H-indol-6-yl]-2-(4-fluoro-benzylamino)-nicotinamide], for which the IC50 is < 50 nM.
Turning to `O=C(Nc1cccc(C(F)(F)F)c1)c1cccnc1NCc1ccc(Br)cc1` [Example 25, (2-{[(4-Bromophenyl)methyl]amino}(3-pyridyl))-N-[3-(trifluoromethyl)phenyl]carboxamide], the IC50 was < 50 nM.
Take `O=C(Nc1ccc(C(F)(F)F)c(OCCN2CCCC2)c1)c1cccnc1NCc1ccc(F)cc1` [Example 42, 2-(4-Fluoro-benzylamino)-N-[3-(2-pyrrolidin-1-yl-ethoxy)-4-trifluoromethyl-phenyl]-nicotinamide]: the IC50 was < 50 nM.
For the molecule `CC(C)c1ccc(NC(=O)c2cccnc2NCc2ccc(F)cc2)cc1` [Example 20, (2-{[(4-Fluorophenyl)methyl]amino}(3-pyridyl))-N-[4-(methylethyl)phenyl]carboxamide], the IC50 was < 50 nM.
Take `CC(C)(C)c1ccc(NC(=O)c2cccnc2NCc2ccc(F)cc2)cc1OC[C@H]1CCCN1` [Example 57, (R) N-[4-tert-Butyl-3-(pyrrolidin-2-ylmethoxy)-phenyl]-2-(4-fluoro-benzylamino)-nicotinamide]: the IC50 was < 50 nM.
For the molecule `CC(C)(C)c1ccc(NC(=O)c2cccnc2NCc2ccc(F)cc2)cc1` [Example 17, N-(4-tert-Butylphenyl)-2-[(4-fluorobenzyl)amino]nicotinamide], the IC50 is < 50 nM.
Take `CN1CCC(N2CC(C)(C)c3ccc(NC(=O)c4cccnc4NCc4ccc(F)cc4)cc32)CC1` [Example 45, N-[3,3-Dimethyl-1-(1-methyl-piperidin-4-yl)-2,3-dihydro-1H-indol-6-yl]-2-(4-fluoro-benzylamino)-nicotinamide]: the IC50 was < 50 nM.
With `O=C(Nc1cccc(C(F)(F)F)c1)c1cccnc1NCc1ccc(F)cc1F` [Example 27, (2-{[(2,4-Difluorophenyl)methyl]amino}(3-pyridyl))-N-[3-(trifluoromethyl)phenyl]carboxamide], the IC50 was < 50 nM.
In the case of `O=C(Nc1cccc(C(F)(F)F)c1)c1cccnc1NCc1ccc(F)cc1` [Example 21, (2-{[(4-Fluorophenyl)methyl]amino}(3-pyridyl))-N-[3-(trifluoromethyl)phenyl]carboxamide], the IC50 is < 50 nM.
In the case of `CC1(C)CN(C2CCNCC2)c2cc(NC(=O)c3cccnc3NCc3ccc(F)cc3)ccc21` [Example 60, N-(3,3-Dimethyl-1-piperidin-4-yl-2,3-dihydro-1H-indol-6-yl)-2-(4-fluoro-benzylamino)-nicotinamide], the IC50 was < 50 nM.
As to `O=C(Nc1cccc(C(F)(F)F)c1)c1cccnc1NCc1ccc(Cl)cc1` [Example 26, (2-{[(4-Chlorophenyl)methyl]amino}(3-pyridyl))-N-[3-(trifluoromethyl)phenyl]carboxamide], the IC50 was < 50 nM.
Turning to `O=C(Nc1cccc(C(F)(F)F)c1)c1cccnc1NCc1ccc(F)c(F)c1` [Example 29, (2-{[(3,4-Difluorophenyl)methyl]amino}(3-pyridyl))-N-[3-(trifluoromethyl)phenyl]carboxamide], the IC50 was < 50 nM.
On to `O=C(Nc1cc(OC[C@H]2CCCN2)cc(C(F)(F)F)c1)c1cccnc1NCc1ccc(F)cc1` [Example 55, (R) 2-(4-Fluoro-benzylamino)-N-[3-(pyrrolidin-2-ylmethoxy)-5-trifluoromethyl-phenyl]-nicotinamide], for which the IC50 is < 50 nM.

Source of the values: patent US7101868B2, “Substituted arylamine derivatives and methods of use” (Amgen Inc., priority 2001, dated 2006).
